Publication PMC7933318, “Engineering a lipoxygenase from cyclocybe aegerita towards long chain polyunsaturated fatty acids” (AMB Express, 2021)

Target: T1, CaeLox1 (Cyclocybe aegerita, UniProt A0A8A1QR86)
T1 construct: gene LOX1; codon-optimized cDNA in pET28a, E. coli BL21-Gold (DE3), Ni-NTA purified
T1 sequence (A0A8A1QR86 1-656): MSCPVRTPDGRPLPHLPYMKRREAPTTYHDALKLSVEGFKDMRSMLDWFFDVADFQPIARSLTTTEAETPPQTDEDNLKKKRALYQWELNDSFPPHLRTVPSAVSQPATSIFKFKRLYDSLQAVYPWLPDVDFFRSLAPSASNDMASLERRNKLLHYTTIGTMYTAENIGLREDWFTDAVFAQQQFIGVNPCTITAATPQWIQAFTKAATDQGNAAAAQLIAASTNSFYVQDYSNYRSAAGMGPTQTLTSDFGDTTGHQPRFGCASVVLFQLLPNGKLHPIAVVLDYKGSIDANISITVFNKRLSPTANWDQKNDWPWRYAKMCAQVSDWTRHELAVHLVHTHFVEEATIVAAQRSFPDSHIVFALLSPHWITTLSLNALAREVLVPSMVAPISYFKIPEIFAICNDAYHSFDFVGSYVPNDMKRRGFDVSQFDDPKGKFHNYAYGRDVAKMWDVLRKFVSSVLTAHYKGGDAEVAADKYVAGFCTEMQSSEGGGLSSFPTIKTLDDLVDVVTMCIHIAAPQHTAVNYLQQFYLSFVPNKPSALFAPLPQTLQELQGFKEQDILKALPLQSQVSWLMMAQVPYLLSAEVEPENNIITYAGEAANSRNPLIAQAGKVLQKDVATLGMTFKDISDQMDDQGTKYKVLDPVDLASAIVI
Test: conjugated diene formation at […] nm, specific activity
Type: biochemical
Conditions: 1.25 mM PUFA, 50 mM phosphate pH 7.5, 25 °C

Question: How did the specific activity turn out when `CCCCC/C=C\C/C=C\CCCCCCCC(=O)O` [LA, linoleic acid] was run?
Answer: we investigated the specific activities of PUFAs occurring (linoleic acid, linolenic acid)
